Read-outs that look alike come from different tables or passages of the source. Each block holds one compound with its values, some of them ahead of it.
Molecular target: T1, GPR119 (Homo sapiens, UniProt Q8TDV5)
T1 sequence (Q8TDV5 1-335): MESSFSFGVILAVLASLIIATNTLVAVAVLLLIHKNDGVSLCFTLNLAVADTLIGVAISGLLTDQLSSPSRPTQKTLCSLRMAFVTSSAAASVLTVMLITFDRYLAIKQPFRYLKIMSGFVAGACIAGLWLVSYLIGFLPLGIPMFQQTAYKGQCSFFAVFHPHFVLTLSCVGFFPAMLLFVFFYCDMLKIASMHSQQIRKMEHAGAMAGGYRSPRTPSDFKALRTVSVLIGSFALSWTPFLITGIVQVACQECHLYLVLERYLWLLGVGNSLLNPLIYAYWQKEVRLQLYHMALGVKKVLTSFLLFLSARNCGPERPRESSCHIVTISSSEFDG
Test: LANCE Ultra cAMP assay: stimulation of GPR119-mediated cAMP production in CHO cells stably expressing human GPR119 receptor
Assay type: cell-based
Settings: for Emax: CHO
Protocol: The potency of GPR119 receptor agonists was assessed by measuring the stimulation of GPR119-mediated cAMP production with LANCE Ultra cAMP assay (Perkin Elmer, TRF0264) in CHO cells stably expressing human GPR119 receptor (Chantest, cat. #A633). CHO-GPR119 cells were cultured in DMEM/F12 medium supplemented with 10% FBS and 1% NEAA at 37° C., 5% CO2, aliquoted and frozen in liquid nitrogen.
(§1) For assay, cells were thawed in a water bath at 37° C., washed in Hank's Balanced Salt Solution (HBSS) and resuspended in Stimulation Buffer 1 (SB1) for 30 min: 5 mM HEPES, pH 7.2-7.4, 0.1% BSA in HBSS. […] The ULight-anti-cAMP antibody (Perkin Elmer, TRF0264) was added to the cell suspension making Mix [Cell suspension/4× ULight-anti-cAMP antibodies]. […] The assay plate was centrifuged 200 g, 5 sec.
Serial dilution (100×) of tested compounds were prepared in DMSO in the range of from 30 nM to 1 mM with half-log step in 384-well plates (Greiner, 781280) using Biomek 2000. 10 test concentrations in two repeats were prepared for each CRC. […] The assay plate was incubated 30 minutes at room temperature on a shaker, 250 rpm to allow GPR119 receptor stimulation. The cAMP level was determined according to the standard kit supplier protocol (PerkinElmer, cat. #TRF0264).
(§2) The stock solution of the Eu-cAMP tracer (Perkin Elmer, TRF0264) was diluted 1:100 in cAMP Detection Buffer (Perkin Elmer, TRF0264), making 2× working concentration and added to the assay plate, 10 μL per well. Assay plate was centrifuged 180 g, 1 sec. Then the assay plate was incubated for 60′ at room temperature on shaker, 250 rpm to allow cAMP detection. The TR-FRET signal was measured at Ex-340 nm/Em-615 and Ex-340 nm/Em-665 nm on the reader Tecan M1000. 0% of cAMP stimulation corresponds to the cells with DMSO only, 100% of cAMP stimulation corresponds to the cells with 10 uM Forskolin. The EC50 value defined as the concentration of the drug that gives half-maximal response, were calculated using GraphPad Prizm 5.0 software with forskolin was used as references at each test. Entries 1-17 in Table A-2 show the biological activity of certain representative compounds using the protocol as described above.
as §1, with “cell suspension,” for “cell suspension”
as §2, with “1-14” for “1-17”, “B-2” for “A-2”

[1] = Table B-2 entries 15-39, modified protocol, 500 cells/well, read-out: % cAMP Max.
[2] = Table B-2 entries 15-39, modified protocol, 500 cells/well
[3] = Table A-2 entries 18-25, modified protocol, 500 cells/well, read-out: % cAMP Max. relative to forscolin
[4] = Table A-2 entries 18-25, modified protocol, 500 cells/well
[5] = Table B-2 entries 1-14, protocol as described (800 000 cells/mL, 5 uL/well), CHO-GPR119 cells
[6] = reference ligands in modified protocol, 500 cells/well
[7] = Table A-2 entries 1-17, protocol as described, 100% = 10 uM Forskolin, read-out: % cAMP Max. relative to forscolin
[8] = Table A-2 entries 1-17, protocol as described (800 000 cells/mL, 5 uL/well), CHO-GPR119 cells

Emax [1]: 95%
EC50 [2]: 30 nM
Compound: [O-][S@+]1COc2cc(-c3ccc(OC[C@H]4CCN(c5ncc(Cl)cn5)C4)c(F)c3)ccc21 [Example B-81, (S)-6-(4-(((S)-1-(5-Chloropyrimidin-2-yl)pyrrolidin-3-yl)methoxy)-3-fluorophenyl)-2H-benzo[d][1,3]oxathiole 3-oxide]

Emax [3]: 80%
EC50 [4]: 19.1 nM
Compound: CC(C)c1cnc(N2CCC(COc3ccc(-c4ccc5c(c4)OCS5(=O)=O)cc3F)CC2)nc1 [Example A-66, 6-(3-Fluoro-4-(1-(5-isopropylpyrimidin-2-yl)piperidin-4-yl)methoxy)phenyl-2H-benzo[d][1,3]oxathiole 3,3-dioxide]

Emax [3]: 51%
EC50 [4]: 1690 nM
Compound: CCc1cnc(N2CCC[C@@H]2COc2ccc(-c3ccc4c(c3)OCS4(=O)=O)cc2F)nc1 [Example A-71]

EC50 [5]: 4.8 nM
Compound: CCc1cnc(N2CCC(COc3ccc(-c4ccc5c(c4)OC[S+]5[O-])cc3F)CC2)nc1 (stereo not shown) [Example B-19]

EC50 [6]: 28.5 nM
maximum cAMP stimulation [6]: 124%
Compound: C=C[C@@]1(C)CC(=O)[C@]2(O)[C@@]3(C)[C@@H](O)CCC(C)(C)[C@@H]3[C@H](O)[C@H](OC(C)=O)[C@@]2(C)O1 [Forscolin, Forskolin, reference compound]

Emax [7]: 80%
EC50 [8]: 67 nM
Compound: O=S1(=O)COc2cc(-c3ccc(OCC4CN(c5ncc(Cl)cn5)C4)c(F)c3)ccc21 [A-48, 6-(4-((1-(5-Chloropyrimidin-2-yl)azetidin-3-yl)methoxy)-3-fluorophenyl)-2H-benzo[d][1,3]oxathiole 3,3-dioxide]

EC50 [5]: > 100 nM
Compound: CC(C)(C)OC(=O)N1CCC(COc2ccc(-c3ccc4c(c3)OC[S+]4[O-])cc2F)CC1 (stereo not shown) [Example B-17, tert-Butyl 4-((2-fluoro-4-(3-oxido-1,3-benzoxathiol-6-yl)phenoxy)methyl) piperidine-1-carboxylate]

EC50 [5]: 3 nM
Compound: CC(C)c1cnc(N2CCC(COc3ccc(-c4ccc5c(c4)OC[S+]5[O-])cc3F)CC2)nc1 (stereo not shown) [Example B-28, 6-(3-Fluoro-4-((1-(5-isopropylpyrimidin-2-yl)piperidin-4-yl)methoxy)phenyl)-2H-benzo[d][1,3]oxathiole 3-oxide]

Emax [7]: 65%
EC50 [8]: 369 nM
Compound: O=S1(=O)COc2ccc(-c3ccc(OCC4CCN(c5ncc(Cl)cn5)CC4)c(F)c3)cc21 [A-40]

Emax [3]: 90%
EC50 [4]: 58 nM
Compound: CCc1ccnc(N2CC[C@H](COc3ccc(-c4ccc5c(c4)OCS5(=O)=O)cc3F)C2)n1 [Example A-92, (S)-6-(4-((1-(4-Ethylpyrimidin-2-yl)pyrrolidin-3-yl)methoxy)-3-fluorophenyl)-2H-benzo[d][1,3]oxathiole 3,3-dioxide]

Emax [3]: 96%
EC50 [4]: 166 nM
Compound: CCc1cnc(N2CC[C@H](COc3ccc(-c4ccc5c(c4)OCS5(=O)=O)cc3F)C2)nc1 [Example A-86, (S)-6-(4-((1-(5-Ethylpyrimidin-2-yl)pyrrolidin-3-yl)methoxy)-3-fluorophenyl)-2H-benzo[d][1,3]oxathiole 3,3-dioxide]

Emax [1]: 73%
EC50 [2]: 19.5 nM
Compound: CCc1cnc(N2CCC(COc3ccc(-c4ccc5c(c4)OC[S@+]5[O-])cc3F)CC2)nc1 [Example B-52]

EC50 [5]: 4.7 nM
Compound: CCOc1cnc(N2CCC(COc3ccc(-c4ccc5c(c4)OC[S+]5[O-])cc3F)CC2)nc1 (stereo not shown) [Example B-27, 6-(4-((1-(5-Ethoxypyrimidin-2-yl)piperidin-4-yl)methoxy)-3-fluorophenyl)-2H-benzo[d][1,3]oxathiole 3-oxide]

Emax [1]: 79%
EC50 [2]: 365 nM
Compound: CCc1cnc(N2CCC(COc3ccc(-c4ccc5c(c4)OCS5)cc3F)CC2)nc1 [Example B-37, 2-(4-((4-(Benzo[d][1,3]oxathiol-6-yl)-2-fluorophenoxy)methyl)piperidin-1-yl)-5-ethylpyrimidine]

EC50 [5]: 2.3 nM
Compound: [O-][S+]1COc2cc(-c3ccc(OCC4CCN(c5ncc(Cl)cn5)CC4)c(F)c3)ccc21 (stereo not shown) [Example B-16, 6-(4-((1-(5-Chloropyrimidin-2-yl)piperidin-4-yl)methoxy)-3-fluorophenyl)-2H-benzo[d][1,3]oxathiole 3-oxide]

EC50 [6]: 592 nM
maximum cAMP stimulation [6]: 100%
Compound: CCCCCCCC/C=C\CCCCCCCC(=O)NCCO [oleoyl ethanolamide, reference compound]

Compound: O=S1(=O)COc2cc(-c3ccc(N4CCN(c5ncc(Cl)cn5)CC4)c(F)c3)ccc21 [Example A-65, 6-(4-(5-Chloropyrimidin-2-yl)piperazin-1-yl)-3-fluorophenyl-2H-benzo[d][1,3]oxathiole 3,3-dioxide]
Emax [7]: 84%
EC50 [8]: 112 nM

Emax [3]: 25%
EC50 [4]: 1310 nM
Compound: CCc1cnc(N2CCC[C@H]2COc2ccc(-c3ccc4c(c3)OCS4(=O)=O)cc2F)nc1 [Example A-80]

Emax [7]: 73%
EC50 [8]: 96 nM
Compound: O=S1(=O)COc2cc(-c3ccc(OCc4cnc(C5CCN(c6ncc(Cl)cn6)CC5)s4)c(F)c3)ccc21 [Example A-58, 6-(4-((2-(1-(5-Chloropyrimidin-2-yl)piperidin-4-yl)thiazol-5-yl)methoxy)-3-fluorophenyl)-2H-benzo[d][1,3]oxathiole-3,3-dioxide]

Emax [1]: 80%
EC50 [2]: 20.5 nM
Compound: CCc1cnc(N2CC[C@H](COc3ccc(-c4ccc5c(c4)OC[S@+]5[O-])cc3F)C2)nc1 [Example B-76]

EC50 [5]: 31.8 nM
Compound: CCc1ccnc(N2CCC(COc3ccc(-c4ccc5c(c4)OC[S+]5[O-])cc3F)CC2)n1 (stereo not shown) [Example B-25]

Emax [1]: 74%
EC50 [2]: 54 nM
Compound: CCc1cnc(N2CC[C@@H](COc3ccc(-c4ccc5c(c4)OC[S+]5[O-])cc3F)C2)nc1 (stereo partly drawn) [Example B-67, 6-(4-(((R)-1-(5-Ethylpyrimidin-2-yl)pyrrolidin-3-yl)methoxy)-3-fluorophenyl)-2H-benzo[d][1,3]oxathiole 3-oxide]

Emax [1]: 61%
EC50 [2]: 27.3 nM
Compound: CCc1ccnc(N2CCC(COc3ccc(-c4ccc5c(c4)OC[S+]5[O-])cc3F)CC2)n1 (stereo not shown) [Example B-35, 6-(4-((1-(4-Ethylpyrimidin-2-yl)piperidin-4-yl)methoxy)-3-fluorophenyl)-2H-benzo[d][1,3]oxathiole 3-oxide]

Emax [7]: 77%
EC50 [8]: 2.5 nM
Compound: CCc1cnc(N2CCC(COc3ccc(-c4ccc5c(c4)OCS5(=O)=O)cc3F)CC2)nc1 [A-24]

Emax [7]: 75%
EC50 [8]: 833 nM
Compound: CC(C)(C)N1CCC(COc2ccc(-c3ccc4c(c3)OCS4(=O)=O)cc2F)CC1 [A-13]

Emax [7]: 81%
EC50 [8]: 24 nM
Compound: CC(C)c1noc(N2CC(COc3ccc(-c4ccc5c(c4)OCS5(=O)=O)cc3F)C2)n1 [A-52, 6-(3-Fluoro-4-((1-(3-isopropyl-1,2,4-oxadiazol-5-yl)azetidin-3-yl)methoxy)phenyl)-2H-benzo[d][1,3]oxathiole 3,3-dioxide]
